These results are taken from patent US11661404B2, “Prodrug compounds activated by AKR1C3 and their use for treating hyperproliferative disorders” (priority 2018, dated 2023).

Data set [1] in a line: Stability in solution by HPLC in water and lactate buffer. Conditions: room temperature. The data set is classed as physicochemical. On the procedure: The solubility and stability of compound 641 was studied by HPLC in lactate buffer (pH 4) and water as the free base and the mesylate salt (641.Ms) at 0° C. and room temperature (RT). […] However, this was improved considerably by formulation as the mesylate salt, producing a solubility of greater than 100 mmol/L in lactate buffer and greater than 70 mmol/L in water. […] This stability was improved considerably by reducing the temperature of the solution to 0° C.

Data set [2] concerns mixed HCT116 colon cancer MCLs containing 5% AKR1C3 over-expressing cells. As to the kind of experiment: High cell density multicellular layer (MCL) assay, bystander cell killing. The data set is classed as cell-based, human. On the procedure: The MCL model utilised for this evaluation consisted of AKR1C3 overexpressing (activator) cells or non-AKR1C3 expressing (target) cells or a mixture of these two cell types grown in a ratio of 5:95. The mixture of the two distinct cell populations enabled the determination of the extent of the transfer of cytotoxic metabolites from the activator cell to the target cell population.
Plating efficiencies were calculated as the fraction of colonies formed relative to the number of cells seeded. The compound concentrations for 10% survival (C10) of target cells grown without activators (T), targets in co-culture (Tc) and activators in co-culture (Ac) was determined by interpolation. Bystander effect efficiency (BEE) was calculated as (Log C10T−Log C10Tc)/(Log C10T−Log C10Ac), where BEE is the measure of cytotoxic metabolite transfer. In contrast to PR-104A, preferred compounds of the invention have a minimal BEE, reducing off-target side effects from ablation of neighbouring non-AKR1C3 expressing cells.
Millicell-CM membrane inserts were coated in calf-skin collagen type III. The collagen solution was prepared dissolving in sterile 0.01 N HCl to a concentration of 3 mg/mL. The collagen solution was diluted (1:5) in sterile 60% ethanol and 100 μL of this solution was used to coat the membrane inserts and left overnight in a sterile environment to dry.
Prior to adding cells, the inserts were sterilised in 70% ethanol and left to aerate in a sterile environment in order for the ethanol to evaporate. A sterile polyethylene foam ring was placed around each insert to enable subsequent floatation. Single cell suspensions of 1×10^6 cells in a volume of 500 μL was added to each insert. When mixtures of cells were required, 1×10^6 cells of the mixed cell suspension (in 500 μL) were added to each insert. The type of mixed MCLs used in experiments consisted of 95% HCT116^NeoR and 5% HCT116^AKR1C3 cells. The HCT116^NeoR ells were used in this mixture as an AKR1C3 negative cell line which can subsequently be grown in selective medium containing Geneticin (G418), and which enabled discrimination with the AKR1C3 positive cell line (which can be grown in selective medium containing puromycin). The inserts containing cells were placed in a sterile screw-top plastic jar containing 300 mL of α-MEM+10% v/v FBS+1% PSG, with a maximum of 6 inserts in a jar. The inserts were left floating in the medium for 4 hours in a humidified incubator (37° C., 5% CO2) to enable cells to adhere to the collagen coat and then submerged in the medium with a sterile stainless steel grid. Cells were left to grow and form MCLs on the inserts for a period of 3 days by placing the jars in a 37° C. water bath with continuous magnetic stirring of the medium.
Three days after growth of cells as MCLs in inserts, each insert was inspected with an inverted phase contrast microscope to ensure uniform growth of cells. Suitable MCLs were transferred to 25 mL glass vessels containing 10 mL of medium (α-MEM+10% v/v FBS+1% PSG) with the required drug concentrations. Each insert in the glass vessel was held by a stainless steel loop attached to the lid. The vessels were placed in a 37° C. water bath. Ports on the lid of each bottle enabled gassing with the required gas phase. The glass vessels containing the MCL inserts and drug were left in the 37° C. water bath for 5 hours with continuous gassing and magnetic stirring of medium. The gas phase used was 5% CO2:95% O2, with the high oxygen concentration used to minimise bioreductive drug activation by endogenous one-electron reductases.
After the 5 hour incubation, each insert was trypsinised in 0.07% trypsin in PBS for 10 minutes at 37° C. to dissociate the MCL into a single cell suspension. The dissociated cells were incubated for a further 10 minutes in α-MEM containing 10% FBS and 100 μg/ml DNAase I. Cells were then counted on a Z2 Coulter® Particle Count and Size Analyzer and resuspended in fresh medium. […]

The mark [3] stands for this setting: 95% HCT116^NeoR : 5% HCT116^AKR1C3, 5 hours.

One may read the half-life as the time in which the quantity being followed falls by half. Read a low half-life as rapid decline. For `CN1CCN(S(=O)(=O)c2cc([N+](=O)[O-])ccc2N(CCOS(C)(=O)=O)CCOS(C)(=O)=O)CC1` [Compound 641, ((2-((4-methylpiperazin-1-yl)sulfonyl)-4-nitrophenyl)azanediyl)bis(ethane-2,1-diyl) dimethanesulfonate], in data set [1] (lactate buffer (pH 4)), the “Stability (% Parent after 24 hours), Lactate Buffer, RT” value is on record as 54.4%. The molecule also showed a half-life in data set [1] (pH 4, lactate buffer) of approximately 24 h. The “shift in the C10 from T to Tc” value in data set [2] (5% AKR1C3-positive cells) was determined as 9 fold. Further, in data set [2] (setting [3]), the “activators in co-culture C10 (Ac)” value was found to be 0.0054 µM and the “targets in co-culture C10 (Tc)” value came to 1.27 µM. Also, in data set [2] (concentrations 0.002 μM to 0.2 μM, FIG. 8), the “AKR1C3-positive HCT116 cells clonogenically sterilised” value was “at least 99.9%”. Also, the “sensitivity of AKR1C3 expressing cells vs AKR1C3-negative cells to clonogenic cell kill (T/Ac)” value in data set [2] (high cell density) was found to be 2055 fold. In data set [2] (target cells grown without activators, 5 hours exposure, clonogenic survival), the “target cell C10 (T), concentration for 10% survival” value turned out to be 11.1 µM.
